2 compounds from paper PMC10229426, “An optimized bioluminescent substrate for non-invasive imaging in the brain” (Nature Chemical Biology, 2023) can be followed below.

“Also recorded” adds a separate entry of the source.

Series [1] concerns the target T1, Antares luciferase (Oplophorus gracilirostris, UniProt Q9GV45, A31E/A60N/A81I/F95D/I117V/K70R/L54V/L99Q/M102K/N193R/P142E/Q151K/Q38R/Q45L/V71I/Y165I).
T1 construct: expressed in transfected cells; host or cells: transgenic mice with CAG-LSL-Antares at the H11 locus, crossed to Cre driver lines (neurons or liver)
The series can be described thus: Bioluminescence imaging of transgenic mice for substrate comparison (brain, Cre-driven Antares). Format: in vivo, mouse. From the text:
Transgenic reporter mice with LSL-CAG-luciferase (Antares, FLuc or AkaLuc) inserted at the H11 locus (H11P) were generated by φC31-mediated recombination in blastocysts[48] by the Stanford Transgenic, Knockout and Tumor Model Center. For substrate comparisons, 2- to 4-month-old transgenic mice doubly hemizygous for a Camk2a-cre (Jackson Laboratory, 005359), Vgat-IRES-cre (Jackson Laboratory), Vglut2-IRES-cre (Jackson Laboratory, 016963) or Alb-cre (Jackson Laboratory, 003574) driver and a CAG-LSL-Antares, CAG-LSL-AkaLuc or CAG-LSL-FLuc reporter were anesthetized by inhalation of isoflurane for 5 min. An electric shaver was used to remove scalp hair in Camk2a-cre, Vglut2-IRES-cre or Vgat-IRES-cre mice or abdominal hair in Alb-cre mice. Nair depilatory cream (Church and Dwight) was then applied to the shaved area for 1 min, and remaining hair was removed with a piece of sterile gauze. The area was then rinsed with DPBS and cleaned with 70% ethanol with a piece of sterile gauze.
For mice expressing Antares, indicated amounts of Fz were dissolved in 480 µl of a PEG-300-based formulation consisting of 10% glycerol, 10% ethanol, 10% hydroxypropylcyclodextrin and 35% PEG-300 in water, or indicated amounts of lyophilized Fz analogs with P-407 vehicle were reconstituted in 150–500 µl of DPBS buffer. For mice expressing FLuc, indicated amounts of D-luciferin were dissolved in PBS. For mice expressing AkaLuc, 3 μmol (1.0 mg) of AkaLumine-HCl (Sigma-Aldrich) was dissolved in 150 μl of 0.9% NaCl. Substrates were then injected into the peritoneal cavity in the left lower quadrant, with the maximum injectable volume at 480 µl. Immediately after substrate injection, bioluminescent images were acquired in an Ami HT bioluminescence imaging system running Aura software version 3.1 or 4.0 (Spectral Instruments Imaging) for 15–30 min at intervals of 1 min. For comparing substrates at 1.3 µmol, the following imager settings were used: emission filter open, field of view of 25 cm, f-stop of 1.2, binning of 2 × 2 and exposure time of 2 s. For comparison with >1.3-µmol substrates, the following settings were used: emission filter open, field of view of 25 cm, f-stop of 1.2, binning of 1 × 1 and exposure time of 1 s. Pseudocolor images and intensity scale bars were generated with Aura software. Integrated luminescence was quantified using the Fiji version of the ImageJ program (NIH)[49], with further statistical analysis performed in GraphPad Prism (version 9.0.0).

Series [2] is described as follows: In vivo substrate pharmacokinetics (plasma and brain). Details: species or system C57BL/6 mice. Conditions: for concentration at 5 min: male, C57BL/6, mouse, brain, ip, 5 min after i.p. 1.3 µmol, wild-type mice. The protocol: PK measurements were performed at Shanghai ChemPartner for Fz and compound 6 in 6- to 8-week-old overnight-fasted male C57BL/6 mice. Fz and compound 6 were formulated as clear solutions in 10% ethanol, 10% glycerol, 10% hydroxypropyl-β-cyclodextrin (Sigma-Aldrich), 35% PEG-300 and 35% water. Freshly prepared injectable doses (i.p., 20 mg per kg body weight for Fz and 21.6 mg per kg body weight for compound 6) were administered at 20 ml kg^–1. Each of the two measurement series consisted of four mice and two time points (series 1, predose and 0.083 h; series 2, 0.083 h and 0.167 h).
At each time point, ~90 µl of blood was collected into a K2EDTA tube via facial vein bleeding. Plasma samples were put on ice and centrifuged to obtain plasma samples (2,000g for 5 min at 4 °C) within 15 min of collection. The plasma samples were stored at –70 °C until analysis. For analysis, 20 µl of plasma sample was added to 20 µl of stabilizer (80:20 (vol:vol) mixture of 200 mg ml^–1 EDTA and 100 mM L-ascorbic acid in water).
At the terminal point of each series, a midline incision was made in the animal’s scalp, and the skin was retracted. The skull overlying the brain was removed. The whole brain was collected, rinsed with cold saline, dried on filtrate paper, weighed and snap-frozen by placing it into dry ice. No abnormal symptoms were observed during the studies. The brain samples were homogenized with 4 ml of stabilizer (80:20 (vol:vol) mixture of 200 mg ml^–1 EDTA and 100 mM L-ascorbic acid in water) per gram of tissue. The above samples (plasma or brain) were mixed with 120 µl of internal standard (Glipizide, 100 ng ml^–1) in acetonitrile. […] Compound concentrations were quantified using LC–MS/MS detection. […]
PK parameters were determined by the non-compartmental model of the non-compartmental analysis tool, Pharsight Phoenix WinNonlin 8.2 software. […] When the number of detected time points after Tmax was less than 3, the terminal half-life and the area under the plasma concentration-time curve from zero to infinity were not calculated.

Series [3] in a line: Solubility in aqueous formulation with poloxamer-407 (P-407). The series is classed as physicochemical. Here is the method: Stock samples of solid formulated Fz analogs were prepared using the following protocol. First, P-407 (Pluronic F127) was placed into a screw-cap glass vial. The polymer was then heated to 75 °C in a water bath until melted. Fz analogs dissolved in ethanol were added to the hot polymer, mixing well with a thin spatula. Additional rinses of Fz analogs in ethanol were added to the hot polymer for quantitative transfer. The solvent was then removed under vacuum. This concentrated sample was diluted with water to make a dispensing mixture of 4–9 mM Fz analogs in water. Next, this aqueous stock was aliquoted into glass vials, frozen and lyophilized overnight to give a yellow cake. For i.p. injection into mice, DPBS (Corning, 21-031-CV) was added to the vial and rocked to create a clear solution.

T1 sequence (Q9GV45 other isoform, or with tags, fused parts or gaps with the stated changes): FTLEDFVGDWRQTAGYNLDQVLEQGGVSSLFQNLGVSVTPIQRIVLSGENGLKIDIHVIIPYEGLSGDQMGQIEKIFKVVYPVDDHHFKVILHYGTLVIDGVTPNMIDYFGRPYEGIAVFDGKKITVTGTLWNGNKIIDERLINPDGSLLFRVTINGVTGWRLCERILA

With `O=c1c(Cc2ccco2)nc2c(Cc3ccccc3)[nH]c(-c3ccccc3)cn1-2` [Fz, furimazine, reference compound], the brain signal distribution entry was “expected forebrain-enriched signal” in series [1] (Antares driven by Camk2a-cre); “signal from both the forebrain and hindbrain” in series [1] (i.p., CAG-LSL-Antares x Vgat-IRES-cre mice). The concentration at 5 min in series [2] was 1100 nM. In addition, the “solubility of 1.3 μmol in P-407 formulation” value in series [3] (1.3 μmol) is on record as “not soluble in P-407”.
As to `O=c1c(Cc2ccco2)nc2c(Cc3ccccc3)[nH]c(-c3cccc(F)c3F)cn1-2` [compound 6, cephalofurimazine], in series [1] (1.3 µmol i.p., Antares driven by Vglut2-IRES-cre or Camk2a-cre, listed as CFz), the “brain brightness relative to Fz” value is on record as “at least 2.5 fold”. The “peak light production in the brain relative to Fz” value in series [1] (1.3 μmol i.p., CAG-LSL-Antares x Vgat-IRES-cre) is recorded as “significantly brighter”. Moreover, the “brain bioluminescence of 4.2 µmol dose relative to 1.3-μmol dose” value in series [1] (4.2 µmol CFz with 20 mg P-407, i.p.) worked out at 6.5 fold. In addition, the “peak brain signal relative to AkaLuc with AkaLumine” value in series [1] (Antares with 1.3 µmol CFz vs AkaLuc with 3.0 µmol AkaLumine, i.p., Vgat-cre or Camk2a-cre double hemizygotes, listed as CFz) was “matches AkaLuc–AkaLumine/TokeOni in brightness; also recorded: comparable peak signal”. Further, the “kinetics of brain signal relative to AkaLuc–AkaLumine” value in series [1] (Antares–CFz) is “rise and decay more quickly”. In addition, the “signal from the brain relative to D-luciferin with firefly luciferase” value in series [1] (CFz paired with Antares) is given as “greater than 20 fold”. In addition, the “bioavailability from plasma concentrations” value in series [2] (i.p. 1.3 µmol, plasma at 5 and 10 min, vs Fz) was “improved bioavailability after i.p. injection”. This compound also returned a concentration at 5 min in series [2] of 1400 nM. For the same compound, the “solubilization of 4.2 µmol in P-407 formulation” value in series [3] (4.2 µmol) is “a small amount of CFz residue already remained with 20 mg of P-407 but not 30 mg”.
